Ki data for 24 compounds are collected here from patent publication US9029370B2, “Substituted benzamide derivatives” (Hoffmann-La Roche Inc., priority 2011, dated 2015).

One experiment concerns the target rat TAAR1 (Rattus norvegicus (Rat), UniProt Q923Y9). The experiment in a line: Radioligand binding assay on rat TAAR1. As to conditions: rat TAAR1, HEK-293 membranes; second value of the pair (line below); read-out: Ki (μM) mouse/rat. On the procedure:
(§1) For the construction of expression plasmids the coding sequences of human, rat and mouse TAAR 1 were amplified from genomic DNA essentially as described by Lindemann et al.. The Expand High Fidelity PCR System (Roche Diagnostics) was used with 1.5 mM Mg^2+ and purified PCR products were cloned into pCR2.1-TOPO cloning vector (Invitrogen) following the instructions of the manufacturer. PCR products were subcloned into the pIRESneo2 vector (BD Clontech, Palo Alto, Calif.), and expression vectors were sequence verified before introduction in cell lines.
(§2) HEK293 cells (ATCC # CRL-1573) were cultured essentially as described by Lindemann et al. (2005). For the generation of stably transfected cell lines HEK293 cells were transfected with the pIRESneo2 expression plasmids containing the TAAR coding sequences (described above) with Lipofectamine 2000 (Invitrogen) according to the instructions of the manufacturer, and 24 hrs post transfection the culture medium was supplemented with 1 mg/ml G418 (Sigma, Buchs, Switzerland). After a culture period of about 10 d clones were isolated, expanded and tested for responsiveness to trace amines (all compounds purchased from Sigma) with the cAMP Biotrak Enzyme immunoassay (EIA) System (Amersham) following the non-acetylation EIA procedure provided by the manufacturer.
Radioligand Binding Assay on Rat TAAR1
(§3) Membrane Preparation and Radioligand Binding.
(§4) HEK-293 cells stably expressing rat TAAR1 were maintained at 37° C. and 5% CO2 in DMEM high glucose medium, containing fetal calf serum (10%, heat inactivated for 30 min at 56° C.), penicillin/streptomycin (1%), and 375 μg/ml geneticin (Gibco). Cells were released from culture flasks using trypsin/EDTA, harvested, washed twice with ice-cold PBS (without Ca^2+ and Mg^2+), pelleted at 1′000 rpm for 5 min at 4° C., frozen and stored at −80° C. […] The homogenate was centrifuged at 48′000×g for 30 min at 4° C. Subsequently, the supernatant was removed and discarded, and the pellet resuspended in 20 ml HEPES-NaOH (20 mM, pH 7.4) containing 0.1 mM EDTA using the Polytron (20 s at 14′000 rpm). This procedure was repeated and the final pellet resuspended in HEPES-NaOH containing 0.1 mM EDTA and homogenized using the Polytron. Typically, aliquots of 2 ml membrane portions were stored at −80° C. With each new membrane batch the dissociation constant (Kd) was determined via a saturation curve. […] Nonspecific binding was defined as the amount of ^3[H]-(S)-4-[(ethyl-phenyl-amino)-methyl]-4,5-dihydro-oxazol-2-ylamine bound in the presence of 10 μM unlabeled ligand. All compounds were tested at a broad range of concentrations (10 pM to 10 μM) in duplicates. […] The 96 deep well plates were incubated for 1 hr at 4° C. Incubations were terminated by rapid filtration through Unifilter-96 plates (Packard Instrument Company) and glass filters GF/C (Perkin Elmer) presoaked for 1 hr in polyethylenimine (0.3%) and washed 3 times with 1 ml of cold binding buffer. After addition of 45 μl of Microscint 40 (PerkinElmer) the Unifilter-96 plate was sealed and after 1 hr the ratioactivity counted using a TopCount Microplate Scintillation Counter (Packard Instrument Company).

A further experiment addresses mouse TAAR1 (Mus musculus (Mouse), UniProt Q923Y8). The experiment can be described thus: Radioligand binding assay on mouse TAAR1. As to conditions: mouse TAAR1, HEK-293 membranes; first value of the pair (before the slash); read-out: Ki (μM) mouse/rat. How it is done:
as §1, §2
Radioligand Binding Assay on Mouse TAAR1
as §3
as §4, with “expressing mouse” for “expressing rat”

Counter-ions that a name gives are not always drawn.

mouse TAAR1, sequence (Q923Y8 whole entry): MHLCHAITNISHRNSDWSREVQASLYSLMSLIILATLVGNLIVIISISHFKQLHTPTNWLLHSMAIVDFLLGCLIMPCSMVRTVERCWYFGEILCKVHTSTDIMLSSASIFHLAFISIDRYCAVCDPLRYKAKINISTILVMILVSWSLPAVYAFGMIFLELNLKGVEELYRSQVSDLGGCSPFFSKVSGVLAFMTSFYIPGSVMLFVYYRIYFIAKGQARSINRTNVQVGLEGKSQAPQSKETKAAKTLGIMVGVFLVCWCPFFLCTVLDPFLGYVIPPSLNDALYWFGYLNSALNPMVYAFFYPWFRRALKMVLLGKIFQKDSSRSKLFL
rat TAAR1, sequence (Q923Y9 whole entry): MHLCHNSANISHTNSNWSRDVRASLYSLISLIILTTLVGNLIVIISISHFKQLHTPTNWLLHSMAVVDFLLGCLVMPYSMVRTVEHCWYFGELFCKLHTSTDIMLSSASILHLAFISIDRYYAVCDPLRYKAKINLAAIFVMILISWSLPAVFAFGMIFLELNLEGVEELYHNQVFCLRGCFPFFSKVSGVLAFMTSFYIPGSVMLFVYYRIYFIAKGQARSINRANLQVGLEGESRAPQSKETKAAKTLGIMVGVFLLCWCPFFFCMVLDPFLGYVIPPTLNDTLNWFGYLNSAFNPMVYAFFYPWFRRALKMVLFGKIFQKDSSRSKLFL

For the compound `COc1cc(C(=O)Nc2ccc([C@H]3CNCCO3)cc2F)cc(Cl)n1` [Example 25, 2-Chloro-N—((S)-2-fluoro-4-morpholin-2-yl-phenyl)-6-methoxy-isonicotinamide], the Ki at rat TAAR1 came out at 0.0127 µM; on mouse TAAR1, 0.0034 µM.

Take `N#Cc1cc(F)cc(NC(=O)Nc2ccc([C@H]3CNCCO3)cc2F)c1` [Example 26, 1-(3-Cyano-5-fluoro-phenyl)-3-((S)-2-fluoro-4-morpholin-2-yl-phenyl)-urea]: the figures for the Ki on rat TAAR1 and at mouse TAAR1 were 0.002 µM and 0.0012 µM, respectively.

As to `N#Cc1cc(NC(=O)Nc2ccc([C@H]3CNCCO3)cc2F)ccc1F` [Example 27, 1-(3-Cyano-4-fluoro-phenyl)-3-((S)-2-fluoro-4-morpholin-2-yl-phenyl)-urea], the results for the Ki on rat TAAR1 and at mouse TAAR1 were 0.0038 µM and 0.0028 µM, respectively.

Turning to `O=C(Nc1ccc([C@H]2CNCCO2)cc1Cl)c1ccn(-c2ccc(F)cc2)n1` [Example 29, (S)—N-(2-Chloro-4-(morpholin-2-yl)phenyl)-1-(4-fluorophenyl)-1H-pyrazole-3-carboxamide], the Ki at rat TAAR1 was 0.0036 µM; on mouse TAAR1, 0.0017 µM.

On to `O=C(Nc1ccc([C@@H]2CNCCO2)cc1Cl)c1ccn(-c2ccc(F)cc2)n1` [Example 30, (R)—N-(2-Chloro-4-(morpholin-2-yl)phenyl)-1-(4-fluorophenyl)-1H-pyrazole-3-carboxamide], for which the Ki at rat TAAR1 was found to be 0.0012 µM; at mouse TAAR1, 0.032 µM.

In the case of `O=C(Nc1ccc([C@H]2CNCCO2)cc1Cl)c1ccc(Cl)cc1` [Example 34, (S)-4-Chloro-N-(2-chloro-4-(morpholin-2-yl)phenyl)benzamide], the Ki on rat TAAR1 turned out to be 0.0229 µM; on mouse TAAR1 it was 0.0024 µM.

As to `O=C(Nc1ccc([C@@H]2CNCCO2)cc1Cl)c1ccc(Cl)nc1` [Example 35, (R)-6-Chloro-N-(2-chloro-4-(morpholin-2-yl)phenyl)nicotinamide], the Ki at rat TAAR1 was 0.111 µM; on mouse TAAR1, 0.0082 µM.

As for `O=C(Nc1ccc([C@H]2CNCCO2)cc1Cl)c1ccc(Cl)nc1` [Example 36, (S)-6-Chloro-N-(2-chloro-4-(morpholin-2-yl)phenyl)nicotinamide], the Ki was 0.488 µM at rat TAAR1 and 0.0139 µM at mouse TAAR1.

Take `COc1ccc(C#N)cc1NC(=O)Nc1ccc([C@H]2CNCCO2)cc1F` [Example 39, (S)-1-(5-Cyano-2-methoxyphenyl)-3-(2-fluoro-4-(morpholin-2-yl)phenyl)urea hydrochloride]: the Ki stood at 0.0085 µM at rat TAAR1 and 0.003 µM on mouse TAAR1.

For the compound `Cc1cc([C@@H]2CNCCO2)ccc1NC(=O)Nc1ccc(Cl)nc1` [Example 40, (R)-1-(6-Chloropyridin-3-yl)-3-(2-methyl-4-(morpholin-2-yl)phenyl)urea], the Ki at rat TAAR1 was found to be 0.12 µM; on mouse TAAR1, 0.0043 µM.

On to `Cc1cc([C@@H]2CNCCO2)ccc1NC(=O)c1ccc(Cl)nc1` [Example 42, 6-Chloro-N—((R)-2-methyl-4-morpholin-2-yl-phenyl)-nicotinamide], for which the Ki at rat TAAR1 worked out at 3.99 µM; at mouse TAAR1, 0.028 µM.

For the compound `COc1ccc(C#N)cc1NC(=O)Nc1ccc([C@@H]2CNCCO2)cc1Cl` [Example 45, (R)-1-(2-Chloro-4-(morpholin-2-yl)phenyl)-3-(5-cyano-2-methoxyphenyl)urea], the figures for the Ki at rat TAAR1 and on mouse TAAR1 were 0.0044 µM and 0.0023 µM, respectively.

In the case of `COc1ccc(C#N)cc1NC(=O)Nc1ccc([C@H]2CNCCO2)cc1Cl` [Example 46, (S)-1-(2-Chloro-4-(morpholin-2-yl)phenyl)-3-(5-cyano-2-methoxyphenyl)urea], the Ki at rat TAAR1 is 0.0064 µM; at mouse TAAR1 it was 0.0016 µM.

In the case of `N#Cc1ccc(OC(F)F)c(NC(=O)Nc2ccc([C@@H]3CNCCO3)cc2Cl)c1` [Example 47, (R)-1-(2-Chloro-4-(morpholin-2-yl)phenyl)-3-(5-cyano-2-(difluoromethoxy)phenyl)urea], the Ki was found to be 0.0012 µM on rat TAAR1 and 0.002 µM at mouse TAAR1.

On to `N#Cc1ccc(OC(F)F)c(NC(=O)Nc2ccc([C@H]3CNCCO3)cc2Cl)c1` [Example 48, (S)-1-(2-Chloro-4-(morpholin-2-yl)phenyl)-3-(5-cyano-2-(difluoromethoxy)phenyl)urea], for which the Ki on rat TAAR1 is 0.0018 µM; at mouse TAAR1, 0.0022 µM.

As to `O=C(Nc1ccc(C(F)(F)F)nc1)Nc1ccc([C@@H]2CNCCO2)cc1Cl` [Example 49, (R)-1-(2-Chloro-4-(morpholin-2-yl)phenyl)-3-(6-(trifluoromethyl)pyridin-3-yl)urea], the Ki amounted to 0.0015 µM on rat TAAR1 and 0.0021 µM at mouse TAAR1.

Consider `O=C(Nc1ccc(C(F)(F)F)nc1)Nc1ccc([C@H]2CNCCO2)cc1Cl` [Example 50, (S)-1-(2-Chloro-4-(morpholin-2-yl)phenyl)-3-(6-(trifluoromethyl)pyridin-3-yl)urea], for which the Ki at rat TAAR1 was determined as 0.0014 µM; on mouse TAAR1, 0.0018 µM.

On to `O=C(Nc1cnc(C(F)(F)F)nc1)Nc1ccc([C@H]2CNCCO2)cc1Cl` [Example 51], for which the Ki on rat TAAR1 came to 0.0126 µM; at mouse TAAR1, 0.0067 µM.

With `O=C(Nc1cnc(C(F)(F)F)nc1)Nc1ccc([C@@H]2CNCCO2)cc1Cl` [Example 52, 1-((R)-2-Chloro-4-morpholin-2-yl-phenyl)-3-(2-trifluoromethyl-pyrimidin-5-yl)-urea], the Ki on rat TAAR1 is 0.0058 µM; on mouse TAAR1 it was 0.0049 µM.

Take `O=C(Nc1ccc(C(F)(F)F)cn1)Nc1ccc([C@H]2CNCCO2)cc1Cl` [Example 53, (S)-1-(2-Chloro-4-(morpholin-2-yl)phenyl)-3-(5-(trifluoromethyl)pyridin-2-yl)urea]: the figures for the Ki at rat TAAR1 and on mouse TAAR1 were 0.0017 µM and 0.0015 µM, respectively.

For the compound `O=C(Nc1ccc(C(F)(F)F)cn1)Nc1ccc([C@@H]2CNCCO2)cc1Cl` [Example 54, (R)-1-(2-Chloro-4-(morpholin-2-yl)phenyl)-3-(5-(trifluoromethyl)pyridin-2-yl)urea], the values for the Ki at rat TAAR1 and at mouse TAAR1 were 0.0018 µM and 0.003 µM, respectively.

`O=C(Nc1ccc(Cl)cn1)Nc1ccc([C@@H]2CNCCO2)cc1Cl` [Example 55, (R)-1-(2-Chloro-4-(morpholin-2-yl)phenyl)-3-(5-chloropyridin-2-yl)urea]: the Ki came to 0.0014 µM at rat TAAR1 and 0.0012 µM at mouse TAAR1.

With `N#Cc1ccc(F)c(NC(=O)Nc2ccc([C@@H]3CNCCO3)cc2F)c1` [Example 56, 1-(5-Cyano-2-fluoro-phenyl)-3-((R)-2-fluoro-4-morpholin-2-yl-phenyl)-urea], the Ki was 0.0035 µM on rat TAAR1 and 0.002 µM on mouse TAAR1.

With `COc1ccc(C#N)cc1NC(=O)Nc1ccc([C@@H]2CNCCO2)cc1Br` [Example 57, 1-((R)-2-Bromo-4-morpholin-2-yl-phenyl)-3-(5-cyano-2-methoxy-phenyl)-urea], the Ki was 0.0127 µM at rat TAAR1 and 0.0039 µM at mouse TAAR1.
